Data on one molecule can be found in US20260294770A1, “FORMULATIONS OF NARINGENIN” (DEBUT BIOTECHNOLOGY, INC., priority 2023, published 2026).

Data set [1] has as its system ALOXE3. The experiment in a line: Upregulation of gene expression and/or activity, 1% naringenin: ALOXE3. An excerpt:
(§1) In certain embodiments, administration of a composition comprising naringenin leads to up-regulation of LCE5A, KRT77, ALOXE3, KRT1, HPGD, MUCL1, CASP14, WFDC12, KRT10, DNASE1L2, IL37, SERPINB12, HAL, UPK1A, CALML5, LCE2B, and/or MIR205. In certain embodiments, administration of a composition comprising naringenin leads to down-regulation of CCL11, CSF2, IL23A, IL11, BMP6, IL13RA2, C2CD4A, NR4A2, C2CD4B, FGF2, FARP4, GDF15, THBS1, HSPA1A, PTGS2, and/or DKK1. Tables 10 and 11 provide data for upregulation and downregulation respectively of certain genes after administration of compositions comprising 1% naringenin.
Arachidonate lipoxygenase 3 (ALOXE3) is involved in formation of epidermis lipids. In particular, ALOXE3 helps add an oxygen molecule to certain fatty acids to produce substances called fatty acid hydroperoxides. The enzyme encoded by ALOXE3 is a hydroperoxide isomerase that synthesizes a unique type of epoxy alcohol (8R-hydroxy-11R,12R-epoxyeicosa-5Z,9E,14Z-trienoic acid) from 12R-hydroperoxyeicosatetraenoic acid (12R-HPETE). This epoxy alcohol can activate the nuclear receptor peroxisome proliferator-activated receptor alpha (PPARalpha), which is implicated in epidermal differentiation. Loss of function of the enzyme encoded by this gene results in ichthyosis, implicating the function of this gene in the differentiation of human skin. […]

The test system of data set [2] is DNASE1L2. Nature of the data set: Upregulation of gene expression and/or activity, 1% naringenin: DNASE1L2.
Text: as §1
Deoxyribonuclease-1-like 2 (DNASE1L2) plays a role in recycling of dying cells. Hair, nails, and the cornified layer of the epidermis, i.e. the stratum corneum, consist of cornified keratinocytes, also known as corneocytes. The process of cornification involves the cross-linking of structural proteins and leads to the high mechanical stability of corneocytes which, along with the formation of stable desmosomal links between cells, is essential for the resistance of epidermal structures to stress from the environment DNASE1L2 is a keratinocyte-specific DNase. DNASE1L2 breakdown of the nucleus in skin appendages and distinct epithelia whereas cornification of the interfollicular epidermis. […]

In data set [3] the test system is IL23A. The experiment in a line: Downregulation of gene expression and/or activity, 1% naringenin: IL23A.
Text: as §1
Interleukin 23A (1L23A) plays a role in the inflammatory pathway. In certain embodiments of the invention, downregulation of IL23A leads to an anti-inflammatory activity. In certain embodiments, the administration of composition comprising naringenin results in at least about 10 to about 20-fold downregulation of expression and/or activity of 1L23A. In certain embodiments, the administration of composition comprising naringenin results in at least about fifteen (15) fold downregulation of expression and/or activity of IL23A.

In data set [4] the test system is NR4A2. The experiment in a line: Downregulation of gene expression and/or activity, 1% naringenin: NR4A2.
Text: as §1
Nuclear receptor subfamily 4 group A member 2 (NR4A2) plays a role in the inflammatory response. In certain embodiments, downregulation of NR4A2 results in reduction in inflammation. In certain embodiments, the administration of composition comprising naringenin results in at least about 5 to about 15-fold downregulation of expression and/or activity of NR4A2. In certain embodiments, the administration of composition comprising naringenin results in at least about ten (10) fold downregulation of expression and/or activity of NR4A2.

For data set [5], the system named is GDF15. Nature of the data set: Downregulation of gene expression and/or activity, 1% naringenin: GDF15.
Text: as §1
Growth differentiation factor 15 (GDF15) plays a role in the inflammatory response. In certain embodiments, downregulation of GDF15 results in reduction in inflammation. In certain embodiments, the administration of composition comprising naringenin results in at least about 2 to about 10-fold downregulation of expression and/or activity of GDF15. In certain embodiments, the administration of composition comprising naringenin results in at least about five (5) fold downregulation of expression and/or activity of GDF15.

Data set [6] can be described thus: Glycation inhibition assay. It counts as biochemical. The following applies: for IC50 glycation inhibition: calculated. Here is the method: The assay was conducted to evaluate the glycation inhibition activity of compositions comprising naringenin.
Nonenzymatic glycation can occur when glucose reacts with proteins, forming a Schiff base intermediate that subsequently undergoes Amadori rearrangement to form glycosylated proteins, when they react with skin proteins to form Advanced Glycation End products (AGE). AGE formation can result in loss of skin elasticity and impaired cellular function. The glycation inhibition ability of a compound is measured by change in fluorescence m relative to solvent control.

`O=C1C[C@@H](c2ccc(O)cc2)Oc2cc(O)cc(O)c21` [naringenin, (2S)-5,7-Dihydroxy-2-(4-hydroxyphenyl)-2,3-dihydro-4H-1-benzopyran-4-one]: the “Fold-increase in expression and/or activity of ALOXE3” value in data set [1] was about 12 fold. The “Fold-increase in expression and/or activity of DNASE1L2” value in data set [2] was about 9 fold. The “fold downregulation in expression and/or activity of IL23A” value in data set [3] is about 18 fold. Further, in data set [4], the “fold downregulation in expression and/or activity of NR4A2” value was about 9 fold. Further, in data set [4] (negative = downregulation), the “Fold-increase (downregulation table) NR4A2” value is given as −9 fold. Moreover, the “fold downregulation in expression and/or activity of GDF15” value in data set [5] is listed as about 6 fold. The “Fold-increase (downregulation table) GDF15” value in data set [5] (negative = downregulation) was −6 fold. Also, the “Lowest concentration inhibiting glycation” value in data set [6] was at most 0.002 % w/w. In addition, the “% Enzyme Inhibition (glycation inhibition)” value amounted to 27.87% in data set [6] (0.008 % w/w naringenin), 45.49% in data set [6] (0.016 % w/w naringenin), 60.22% in data set [6] (0.031 % w/w naringenin) and 69.05% in data set [6] (0.0625 % w/w naringenin). The IC50 glycation inhibition in data set [6] was 0.019 % w/w; in data set [6] (Example 7), 0.019%.
